{"source": "patent US20020111274A1", "about": "“1-alkyl-3-[1-(substituted phenyl) benzotriazol-6-yl] uracils” (BASF Aktiengesellschaft, priority 2000, published 2002)", "design_in_all_cases": "scale not given here", "key": {"ZEAMX Corn, Field [1]": {"tested_on": "ZEAMX Corn, Field", "assay": "Postemergence herbicidal evaluation, ZEAMX", "assay_type": "in vivo, Zea mays, L. (Sammel-Bezeichnung)", "conditions": "0.062 kg/ha, postemergence spray, rated about two-three weeks after treatment", "summary_of_the_method": "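Two-week-old seedlings sprayed postemergence with compound in 80/20 acetone/water plus 1.0% methylated seed oil, at about 0.006–0.400 kg/ha, through a nozzle at 40 psi. Plants kept under greenhouse conditions and visually rated about two–three weeks after treatment; ratings from repeat tests averaged.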"}, "ABUTH Velvetleaf": {"tested_on": "ABUTH Velvetleaf", "assay": "Preemergence herbicidal evaluation, ABUTH", "assay_type": "in vivo, Abutilon theophrasti, Medic.", "conditions": "preemergence", "summary_of_the_method": "(§1)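 First, seed is blended with potting soil and sown over roughly an inch of soil per cup. Next, the surface is sprayed with an aqueous acetone solution delivering about 0.013–0.800 kg/ha. Finally, cups are grown in the greenhouse and rated after 4–5 weeks.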"}, "AMBEL Ragweed, Common": {"tested_on": "AMBEL Ragweed, Common", "assay": "Preemergence herbicidal evaluation, AMBEL", "assay_type": "in vivo, Ambrosia artemisifolia, L.", "conditions": "preemergence", "summary_of_the_method": "as §1"}, "CASOB Sicklepod": {"tested_on": "CASOB Sicklepod", "assay": "Preemergence herbicidal evaluation, CASOB", "assay_type": "in vivo, Cassia obtusifolia, L.", "conditions": "preemergence", "summary_of_the_method": "as §1"}, "[2]": {"tested_on": "CHEAL Lambsquarters, Common", "assay": "Preemergence herbicidal evaluation, CHEAL", "assay_type": "in vivo, Chenopodium album, L.", "conditions": "preemergence", "summary_of_the_method": "as §1"}, "ECHOG Barnyardgrass": {"tested_on": "ECHOG Barnyardgrass", "assay": "Preemergence herbicidal evaluation, ECHOG", "assay_type": "in vivo, Echinochloa crus-galli, (L.) Beau", "conditions": "preemergence", "summary_of_the_method": "as §1"}, "GALAP Galium": {"tested_on": "GALAP Galium", "assay": "Preemergence herbicidal evaluation, GALAP", "assay_type": "in vivo, Galium aparine", "conditions": "preemergence", "summary_of_the_method": "as §1"}, "[3]": {"tested_on": "IPOHE Morningglory, Ivyleaf", "assay": "Preemergence herbicidal evaluation, IPOHE", "assay_type": "in vivo, Ipomoea hederacea, (L.) Jacq.", "conditions": "preemergence", "summary_of_the_method": "as §1"}, "SETVI Foxtail, Green": {"tested_on": "SETVI Foxtail, Green", "assay": "Preemergence herbicidal evaluation, SETVI", "assay_type": "in vivo, Setaria viridis, (L.) Beau", "conditions": "preemergence", "summary_of_the_method": "as §1"}, "GLXMAW Soybean, Williams": {"tested_on": "GLXMAW Soybean, Williams", "assay": "Preemergence herbicidal evaluation, GLXMAW", "assay_type": "in vivo, Glycine max, (L.) Merr. cv Williams", "conditions": "preemergence", "summary_of_the_method": "as §1"}, "[4]": {"tested_on": "TRZAWR Wheat, Winter, cv Riband", "assay": "Preemergence herbicidal evaluation, TRZAWR", "assay_type": "in vivo, Triticum aestivum", "conditions": "preemergence", "summary_of_the_method": "as §1"}, "ORYSAT Rice, Tebonnet": {"tested_on": "ORYSAT Rice, Tebonnet", "assay": "Preemergence herbicidal evaluation, ORYSAT", "assay_type": "in vivo, Oryza sativa, (L.)", "conditions": "preemergence", "summary_of_the_method": "as §1"}, "ZEAMX Corn, Field [5]": {"tested_on": "ZEAMX Corn, Field", "assay": "Preemergence herbicidal evaluation, ZEAMX", "assay_type": "in vivo, Zea mays, L. (Sammel-Bezeichnung)", "conditions": "preemergence", "summary_of_the_method": "as §1"}}}
{"smiles": "COC(=O)C(C)Oc1ccc(C)cc1-n1nnc2cc(F)c(-n3c(=O)cc(C(F)(F)F)n(C)c3=O)cc21", "note": "(stereo not drawn) [Example 41]", "values": [{"measurement": "Postemergence herbicidal rating ZEAMX", "setting": "ZEAMX Corn, Field [1]", "value": 9.0}, {"measurement": "ABUTH herbicidal rating", "setting": "ABUTH Velvetleaf; rate 0.016 kg/ha", "value": 4.0}, {"measurement": "ABUTH herbicidal rating", "setting": "ABUTH Velvetleaf; rate 0.032 kg/ha", "value": 4.0}, {"measurement": "ABUTH herbicidal rating", "setting": "ABUTH Velvetleaf; rate 0.062 kg/ha", "value": 9.0}, {"measurement": "ABUTH herbicidal rating", "setting": "ABUTH Velvetleaf; rate 0.125 kg/ha", "value": 9.0}, {"measurement": "AMBEL herbicidal rating", "setting": "AMBEL Ragweed, Common; rate 0.016 kg/ha", "value": 0.0}, {"measurement": "AMBEL herbicidal rating", "setting": "AMBEL Ragweed, Common; rate 0.032 kg/ha", "value": 0.0}, {"measurement": "AMBEL herbicidal rating", "setting": "AMBEL Ragweed, Common; rate 0.062 kg/ha", "value": 0.0}, {"measurement": "AMBEL herbicidal rating", "setting": "AMBEL Ragweed, Common; rate 0.125 kg/ha", "value": 7.0}, {"measurement": "CASOB herbicidal rating", "setting": "CASOB Sicklepod; rate 0.016 kg/ha", "value": 0.0}, {"measurement": "CASOB herbicidal rating", "setting": "CASOB Sicklepod; rate 0.032 kg/ha", "value": 0.0}, {"measurement": "CASOB herbicidal rating", "setting": "CASOB Sicklepod; rate 0.062 kg/ha", "value": 0.0}, {"measurement": "CHEAL herbicidal rating", "setting": "[2]; rate 0.016 kg/ha", "value": 4.0}, {"measurement": "CHEAL herbicidal rating", "setting": "[2]; rate 0.032 kg/ha", "value": 9.0}, {"measurement": "CHEAL herbicidal rating", "setting": "[2]; rate 0.062 kg/ha", "value": 9.0}, {"measurement": "CHEAL herbicidal rating", "setting": "[2]; rate 0.125 kg/ha", "value": 9.0}, {"measurement": "ECHCG herbicidal rating", "setting": "ECHOG Barnyardgrass; rate 0.016 kg/ha", "value": 0.0}, {"measurement": "ECHCG herbicidal rating", "setting": "ECHOG Barnyardgrass; rate 0.032 kg/ha", "value": 0.0}, {"measurement": "ECHCG herbicidal rating", "setting": "ECHOG Barnyardgrass; rate 0.062 kg/ha", "value": 0.0}, {"measurement": "ECHCG herbicidal rating", "setting": "ECHOG Barnyardgrass; rate 0.125 kg/ha", "value": 4.0}, {"measurement": "GALAP herbicidal rating", "setting": "GALAP Galium; rate 0.016 kg/ha", "value": 0.0}, {"measurement": "GALAP herbicidal rating", "setting": "GALAP Galium; rate 0.032 kg/ha", "value": 0.0}, {"measurement": "GALAP herbicidal rating", "setting": "GALAP Galium; rate 0.062 kg/ha", "value": 0.0}, {"measurement": "GALAP herbicidal rating", "setting": "GALAP Galium; rate 0.125 kg/ha", "value": 0.0}, {"measurement": "IPOHE herbicidal rating", "setting": "[3]; rate 0.016 kg/ha", "value": 0.0}, {"measurement": "IPOHE herbicidal rating", "setting": "[3]; rate 0.032 kg/ha", "value": 0.0}, {"measurement": "IPOHE herbicidal rating", "setting": "[3]; rate 0.062 kg/ha", "value": 0.0}, {"measurement": "IPOHE herbicidal rating", "setting": "[3]; rate 0.125 kg/ha", "value": 9.0}, {"measurement": "SETVI herbicidal rating", "setting": "SETVI Foxtail, Green; rate 0.016 kg/ha", "value": 0.0}, {"measurement": "SETVI herbicidal rating", "setting": "SETVI Foxtail, Green; rate 0.032 kg/ha", "value": 0.0}, {"measurement": "SETVI herbicidal rating", "setting": "SETVI Foxtail, Green; rate 0.062 kg/ha", "value": 0.0}, {"measurement": "SETVI herbicidal rating", "setting": "SETVI Foxtail, Green; rate 0.125 kg/ha", "value": 9.0}, {"measurement": "GLXMAW herbicidal rating", "setting": "GLXMAW Soybean, Williams; rate 0.016 kg/ha", "value": 0.0}, {"measurement": "GLXMAW herbicidal rating", "setting": "GLXMAW Soybean, Williams; rate 0.032 kg/ha", "value": 0.0}, {"measurement": "GLXMAW herbicidal rating", "setting": "GLXMAW Soybean, Williams; rate 0.062 kg/ha", "value": 2.0}, {"measurement": "GLXMAW herbicidal rating", "setting": "GLXMAW Soybean, Williams; rate 0.125 kg/ha", "value": 2.0}, {"measurement": "TRZAWR herbicidal rating", "setting": "[4]; rate 0.016 kg/ha", "value": 0.0}, {"measurement": "TRZAWR herbicidal rating", "setting": "[4]; rate 0.032 kg/ha", "value": 0.0}, {"measurement": "TRZAWR herbicidal rating", "setting": "[4]; rate 0.062 kg/ha", "value": 0.0}, {"measurement": "TRZAWR herbicidal rating", "setting": "[4]; rate 0.125 kg/ha", "value": 1.0}, {"measurement": "ORYSAT herbicidal rating", "setting": "ORYSAT Rice, Tebonnet; rate 0.016 kg/ha", "value": 0.0}, {"measurement": "ORYSAT herbicidal rating", "setting": "ORYSAT Rice, Tebonnet; rate 0.032 kg/ha", "value": 0.0}, {"measurement": "ORYSAT herbicidal rating", "setting": "ORYSAT Rice, Tebonnet; rate 0.062 kg/ha", "value": 3.0}, {"measurement": "ORYSAT herbicidal rating", "setting": "ORYSAT Rice, Tebonnet; rate 0.125 kg/ha", "value": 4.0}, {"measurement": "ZEAMX herbicidal rating", "setting": "ZEAMX Corn, Field [5]; rate 0.016 kg/ha", "value": 0.0}, {"measurement": "ZEAMX herbicidal rating", "setting": "ZEAMX Corn, Field [5]; rate 0.032 kg/ha", "value": 0.0}, {"measurement": "ZEAMX herbicidal rating", "setting": "ZEAMX Corn, Field [5]; rate 0.062 kg/ha", "value": 0.0}, {"measurement": "ZEAMX herbicidal rating", "setting": "ZEAMX Corn, Field [5]; rate 0.125 kg/ha", "value": 0.0}]}
